One assay concerns the target T1, mouse Fpr3 (Fpr-rs1) (Mus musculus, UniProt O08790).
T1 construct: expressed in transfected cells; host or cells: HEK293T (DSMZ # ACC-635), transient transfection with jetPEI
T1 sequence (O08790 1-351): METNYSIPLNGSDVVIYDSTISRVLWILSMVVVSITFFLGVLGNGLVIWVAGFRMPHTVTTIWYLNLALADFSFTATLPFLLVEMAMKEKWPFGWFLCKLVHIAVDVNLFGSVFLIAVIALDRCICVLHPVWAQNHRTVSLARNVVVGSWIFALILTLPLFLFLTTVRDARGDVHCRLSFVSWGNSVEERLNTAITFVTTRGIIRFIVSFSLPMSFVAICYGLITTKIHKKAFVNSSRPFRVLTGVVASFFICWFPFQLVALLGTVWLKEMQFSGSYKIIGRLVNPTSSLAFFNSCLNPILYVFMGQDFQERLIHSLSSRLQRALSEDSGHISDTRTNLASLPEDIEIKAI
Kind of assay: Heterologous expression / high-throughput Ca2+ imaging agonist screen and sequence selectivity of Fpr3 (Fig. 1a, 2c-e, 2g, 2i). The following applies: for Ca2+ response, mean: mean of n = 3 experiments in triplicate (n = 5 for f-MKKFRW), Fpr3 + Gα16 HEK293T, Fluo-4/AM, buffer C1 pH 7.2, mock 0.059-0.060. The class given is cell-based. The essentials: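 HEK293T cells were cotransfected with C57BL/6J mouse Fpr3 and Gα16, and Ca2+ responses to synthetic peptides (6–21 residues, >95% purity) were recorded 48 h later by FLIPR with Fluo-4/AM. Peptide stocks of 0.2–1 mM were prepared in buffer C1 (HEPES, pH 7.2).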

For a further assay, the system named is Fpr2. The conditions noted are these: cited from earlier work. As to the method:
(§1) We estimate the fraction of knobs responding to f-MKKFRW as ~0.15%, which is similar to the fraction of cells in the VNE that express Fpr3[30]. Strikingly, the sensitivity and sequence-selectivity profile of these responses was nearly identical to the results that we obtained for heterologously expressed Fpr3. The detection threshold of native VSNs for f-MKKFRW was ≤0.1 µM (Fig. 4f), virtually the same as for Fpr3-expres ...

The subject of the next assay is Fpr1. The conditions noted are these: cited from earlier work. As to the method: as §1
In a further assay the test system is mouse Fpr3. The conditions noted are these: cited from earlier work. As to the method:
We estimate the fraction of knobs responding to f-MKKFRW as ~0.15%, which is similar to the fraction of cells in the VNE that express Fpr3[30]. Strikingly, the sensitivity and sequence-selectivity profile of these responses was nearly identical to the results that we obtained for heterologously expressed Fpr3. The detection threshold of native VSNs for f-MKKFRW was ≤0.1 µM (Fig. 4f), virtually the same as for Fpr3-expres ... || Given the importance of the olfactory system in a variety of behavioural avoidance and defence mechanisms[14],[62],[63], we reasoned that in vivo detection of MgrB peptide may evoke an avoidance reaction in mice. We devised a behavioural assay[14],[60] in order to determine whether direct nasal contact with MgrB peptide evokes unconditioned, innate avoidance (Fig. 8a and Methods). […] (Fig ... || We used custom-made peptides with a length of 6–21 amino acids to screen for agonists. Sequences of fMet peptides were designed according to motifs present at the N-termini of 15,125 specific bacterial proteins as annotated in UniProt. Peptides were chemically synthesised, purified, and verified by mass spectroscopy (MALDI-TOF) by commercial suppliers. Purity of all peptides was >95%. Source, sequence and purity of each peptide are listed in Supplementary Data 1. Lyophilised peptides were routinely dissolved in the Ca^2+ imaging assay buffer C1 (130 mM NaCl, 10 mM HEPES, 5 mM KCl, 2 mM CaCl2, ...

Entries after “also recorded” stand apart in the source; their conditions may differ. Peptide text beside a SMILES is read from it. * marks the point of attachment. For = O=C*

Turning to `CSCC[C@H](NC=O)C(=O)N[C@@H](CCCCN)C(=O)N[C@@H](CCCCN)C(=O)N[C@@H](Cc1ccccc1)C(=O)N[C@@H](CCCNC(=N)N)C(=O)N[C@@H](Cc1c[nH]c2ccccc12)C(=O)O` [f-MKKFRW] (For-MKKFRW-OH), on mouse Fpr3 (Fpr-rs1) (3 µM, Fpr3-transfected HEK293T, Gα16, Fluo-4/AM, FLIPR, Fig. 1a), the “activation of Fpr3 in agonist screen, in words” value was “activated Fpr3-expressing HEK293T”. The “Ca2+ response, mean” value at mouse Fpr3 (Fpr-rs1) (3 µM, FLIPR) was 0.110 ∆F/F; at mouse Fpr3 (Fpr-rs1) (30 µM, FLIPR) it was 0.423 ∆F/F. Further, the “Fpr3 activation by sequence variants, in words” value at mouse Fpr3 (Fpr-rs1) (30 µM (3 or 30 µM for elongated peptides), Fpr3-transfected HEK293T, Fig. 2c-e, i) was “Fpr3 recognises the core agonist f-MKKFRW”. In addition, the “specific Ca2+ response of Fpr3 in agonist screen, in words” value on mouse Fpr3 (Fpr-rs1) (3 or 30 µM, Fpr3-transfected HEK293T, panel of 41 peptides, Fig. 1a) is “caused Fpr3 activation”.

For the compound “f-MGFFIS [bacterial signal peptide fragment]”, the “Ca2+ response, mean” value was 0.055 ∆F/F at mouse Fpr3 (Fpr-rs1) (3 µM, FLIPR) and 0.048 ∆F/F at mouse Fpr3 (Fpr-rs1) (30 µM, FLIPR). Further, the “activation of Fpr2, in words” value in the assay with Fpr2 was “activates Fpr1 and Fpr2”. Further, the “activation of Fpr1, in words” value in the assay on Fpr1 was “activates Fpr1”. The “activation of heterologously expressed Fpr3, in words” value in the assay with mouse Fpr3 is listed as “not Fpr3; also recorded: failed to activate heterologously expressed Fpr3”.

The values are drawn from PMC6814738, “Bacterial MgrB peptide activates chemoreceptor Fpr3 in mouse accessory olfactory system and drives avoidance behaviour” (Nature Communications, 2019).
